The values below come from patent US10758534B2 (Vertex Pharmaceuticals Incorporated, priority 2014, dated 2020).

In the assay the target is T1, F508del (Homo sapiens, UniProt P13569, DEL508-508).
T1 construct: expressed in transfected cells
As to the kind of experiment: Protocol 1: membrane potential optical assay (FLIPR III, voltage sensing dye), identification of potentiator compounds. Format: cell-based. The conditions noted are these: Table 3, compounds of Table 1. A digest of the protocol: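 NIH 3T3 fibroblasts stably expressing F508del were cultured at 27° C for 24 hrs for temperature correction, then treated with compounds or DMSO and loaded with a voltage-sensing redistribution dye. Forskolin added with a Cl⁻ gradient activated the channel; membrane-potential fluorescence on FLIPR III reported increased gating.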

T1 sequence (P13569 with tags, fused parts or gaps DEL508-508): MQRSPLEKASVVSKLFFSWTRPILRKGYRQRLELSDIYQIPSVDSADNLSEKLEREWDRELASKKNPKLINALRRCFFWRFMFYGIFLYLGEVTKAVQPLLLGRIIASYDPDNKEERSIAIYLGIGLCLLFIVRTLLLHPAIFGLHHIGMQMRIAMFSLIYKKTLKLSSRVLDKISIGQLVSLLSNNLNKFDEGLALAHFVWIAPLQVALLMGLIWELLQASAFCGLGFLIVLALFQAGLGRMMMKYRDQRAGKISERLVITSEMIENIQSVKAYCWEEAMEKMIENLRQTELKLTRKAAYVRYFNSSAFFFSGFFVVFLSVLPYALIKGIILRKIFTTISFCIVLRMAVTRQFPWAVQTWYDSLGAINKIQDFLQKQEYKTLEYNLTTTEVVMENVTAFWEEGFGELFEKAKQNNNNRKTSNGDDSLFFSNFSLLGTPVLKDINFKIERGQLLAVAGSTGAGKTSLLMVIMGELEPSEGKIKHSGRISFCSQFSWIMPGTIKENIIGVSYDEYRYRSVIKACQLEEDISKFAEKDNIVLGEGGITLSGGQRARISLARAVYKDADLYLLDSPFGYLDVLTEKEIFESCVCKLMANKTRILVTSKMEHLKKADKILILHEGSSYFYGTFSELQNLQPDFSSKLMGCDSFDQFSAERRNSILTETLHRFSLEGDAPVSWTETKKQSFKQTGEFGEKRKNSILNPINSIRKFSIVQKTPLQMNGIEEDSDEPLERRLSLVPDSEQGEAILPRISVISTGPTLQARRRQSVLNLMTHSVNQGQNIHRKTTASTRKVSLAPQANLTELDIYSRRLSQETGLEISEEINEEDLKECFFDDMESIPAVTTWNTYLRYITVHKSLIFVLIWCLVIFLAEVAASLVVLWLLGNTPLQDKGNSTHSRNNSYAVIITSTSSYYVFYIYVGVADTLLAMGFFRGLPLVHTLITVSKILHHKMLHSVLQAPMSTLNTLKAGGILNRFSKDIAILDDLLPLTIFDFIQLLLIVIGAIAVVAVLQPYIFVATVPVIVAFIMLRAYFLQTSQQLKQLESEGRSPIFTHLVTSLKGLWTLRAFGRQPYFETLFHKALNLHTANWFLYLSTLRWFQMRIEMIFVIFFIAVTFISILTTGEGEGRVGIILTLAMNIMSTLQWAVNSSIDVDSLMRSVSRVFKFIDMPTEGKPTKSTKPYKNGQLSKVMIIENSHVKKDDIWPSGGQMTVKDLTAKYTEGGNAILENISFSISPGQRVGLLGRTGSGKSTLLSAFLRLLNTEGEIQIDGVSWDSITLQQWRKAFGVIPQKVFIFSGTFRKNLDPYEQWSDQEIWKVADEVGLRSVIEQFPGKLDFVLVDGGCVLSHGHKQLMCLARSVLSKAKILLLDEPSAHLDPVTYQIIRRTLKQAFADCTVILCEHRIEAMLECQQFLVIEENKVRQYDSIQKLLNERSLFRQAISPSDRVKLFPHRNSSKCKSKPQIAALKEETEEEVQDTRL

Regarding `CC1CN(c2nc(C(C)(C)C)c(C3=COCCC3)cc2C(=O)NS(=O)(=O)c2cccc(N)n2)C(C)(C)C1` (stereo not drawn) [Compound 1487, N-[(6-amino-2-pyridyl)sulfonyl]-6-tert-butyl-5-(3,4-dihydro-2H-pyran-5-yl)-2-(2,2,4-trimethylpyrrolidin-1-yl)pyridine-3-carboxamide], the EC30 entry is “+++ (“+++” means <3 uM)”.
Next, `CC(C)COc1cc(F)cc(-c2ccc(C(=O)NS(=O)(=O)c3cccc(N)n3)c(OC3CC4CCC3C4)n2)c1` (stereo not drawn) [Compound 1227, N-[(6-amino-2-pyridyl)sulfonyl]-6-(3-fluoro-5-isobutoxy-phenyl)-2-norbornan-2-yloxy-pyridine-3-carboxamide]: “+++ (“+++” means <3 uM)”; `CCOc1ccc(-c2ccc(C(=O)NS(=O)(=O)c3cccc(N)n3)c(Oc3c(C)cc(C)cc3C)n2)cc1` [Compound 1337, N-[(6-amino-2-pyridyl)sulfonyl]-6-(4-ethoxyphenyl)-2-(2,4,6-trimethylphenoxy)pyridine-3-carboxamide]: “+++ (“+++” means <3 uM)”; `CC1CN(c2ncc(-c3ccc(C(C)C)cc3)cc2C(=O)NS(=O)(=O)c2cccc(N)n2)C(C)(C)C1` (stereo not drawn) [Compound 1809]: “+++ (“+++” means <3 uM)”.
Next, `Cc1ccc(-c2ccc(C(=O)NS(=O)(=O)c3cccnc3N)c(N3C[C@@H](C)CC3(C)C)n2)c(O)c1` [Compound 1731, N-[(2-amino-3-pyridyl)sulfonyl]-6-(2-hydroxy-4-methyl-phenyl)-2-[(4S)-2,2,4-trimethylpyrrolidin-1-yl]pyridine-3-carboxamide]: “+++ (“+++” means <3 uM)”; `CC(C)COc1cc(F)cc(-c2ccc(C(=O)NS(=O)(=O)c3cccc(N)n3)c(C3=CC(C)(C)OC(C)(C)C3)n2)c1` [Compound 1368, N-[(6-amino-2-pyridyl)sulfonyl]-6-(3-fluoro-5-isobutoxy-phenyl)-2-(2,2,6,6-tetramethyl-3H-pyran-4-yl)pyridine-3-carboxamide]: “+++ (“+++” means <3 uM)”.
With `C[C@@H]1CN(c2nc(C(C)(C)C)c(C(O)C(O)C3CCCCC3)cc2C(=O)NS(=O)(=O)c2cccc(N)n2)C(C)(C)C1` (stereo partly drawn) [Compound 1846] the entry was “+++ (“+++” means <3 uM)”.
With `CC(C)COc1cc(F)cc(-c2ccc(C(=O)NS(=O)(=O)c3ccn[nH]3)c(N3C[C@H](C)CC3(C)C)n2)c1` [Compound 1176, 6-(3-fluoro-5-isobutoxy-phenyl)-N-(1H-pyrazol-5-ylsulfonyl)-2-[(4R)-2,2,4-trimethylpyrrolidin-1-yl]pyridine-3-carboxamide], the EC30 entry was “+++ (“+++” means <3 uM)”.
Next, `CC(C)COc1cc(-c2ccc(C(=O)NS(=O)(=O)c3ccn[nH]3)c(N3[C@H](C)CC[C@@H]3C)n2)ccc1Cl` [Compound 1234, 6-(4-chloro-3-isobutoxy-phenyl)-2-[(2S,5R)-2,5-dimethylpyrrolidin-1-yl]-N-(1H-pyrazol-5-ylsulfonyl)pyridine-3-carboxamide]: “+++ (“+++” means <3 uM)”.
In the case of `CC(C)COc1cc(F)cc(-c2ccc(C(=O)NS(=O)(=O)c3ccn[nH]3)c(N3CC(C)OC(C)C3)n2)c1` (stereo not drawn) [Compound 1119, 2-(2,6-dimethylmorpholin-4-yl)-6-(3-fluoro-5-isobutoxy-phenyl)-N-(1H-pyrazol-5-ylsulfonyl)pyridine-3-carboxamide], the EC30 result is “++ (“++” means between 3 uM and 10 uM)”.
Next, `COc1ncc(Cl)cc1-c1ccc(C(=O)NS(=O)(=O)c2cccc(N)n2)c(Oc2c(C)cc(C)cc2C)n1` [Compound 993, N-[(6-amino-2-pyridyl)sulfonyl]-6-(5-chloro-2-methoxy-3-pyridyl)-2-(2,4,6-trimethylphenoxy)pyridine-3-carboxamide]: “+++ (“+++” means <3 uM)”.
With `CCCOc1cc(-c2ccc(C(=O)NS(=O)(=O)c3ccn[nH]3)c(N3[C@H](C)CC[C@@H]3C)n2)ccc1Cl` [Compound 832, 6-(4-chloro-3-propoxy-phenyl)-2-[(2R,5S)-2,5-dimethylpyrrolidin-1-yl]-N-(1H-pyrazol-5-ylsulfonyl)pyridine-3-carboxamide] the entry was “+++ (“+++” means <3 uM)”.
With `CC(C)COc1cc(F)cc(-c2ccc(C(=O)NS(=O)(=O)C3CC3)c(N3C[C@@H](C)CC3(C)C)n2)c1` [Compound 1525, N-cyclopropylsulfonyl-6-(3-fluoro-5-isobutoxy-phenyl)-2-[(4S)-2,2,4-trimethylpyrrolidin-1-yl]pyridine-3-carboxamide] the entry was “+++ (“+++” means <3 uM)”.
`Cc1cc2c(cc1-c1cnc(N3CC(C)CC3(C)C)c(C(=O)NS(=O)(=O)c3cccc(N)n3)c1)C(C)(C)CCC2(C)C` (stereo not drawn) [Compound 1759, N-[(6-amino-2-pyridyl)sulfonyl]-5-(1,1,4,4,7-pentamethyltetralin-6-yl)-2-(2,2,4-trimethylpyrrolidin-1-yl)pyridine-3-carboxamide]: the EC30 entry is listed as “+++ (“+++” means <3 uM)”.
With `Cc1cc(C)c(Oc2nc(-c3cnc(N(C)C)nc3)ccc2C(=O)NS(=O)(=O)c2cccc(N)n2)c(C)c1` [Compound 1139, N-[(6-amino-2-pyridyl)sulfonyl]-6-[2-(dimethylamino)pyrimidin-5-yl]-2-(2,4,6-trimethylphenoxy)pyridine-3-carboxamide] the entry was “+++ (“+++” means <3 uM)”.
`CCOc1cc(C)cc(-c2ccc(C(=O)NS(=O)(=O)c3cccnc3N)c(Oc3c(C)cc(C)cc3C)n2)n1` [Compound 1795, N-[(2-amino-3-pyridyl)sulfonyl]-6-(6-ethoxy-4-methyl-2-pyridyl)-2-(2,4,6-trimethylphenoxy)pyridine-3-carboxamide]: the EC30 entry is on record as “+++ (“+++” means <3 uM)”.
Next, `CC1CN(c2ncccc2C(=O)NS(=O)(=O)c2cccc(Nc3ccc(C(C)C)cc3)n2)C(C)(C)C1` (stereo not drawn) [Compound 1722, N—[[6-(4-isopropylanilino)-2-pyridyl]sulfonyl]-2-(2,2,4-trimethylpyrrolidin-1-yl)pyridine-3-carboxamide]: “+++ (“+++” means <3 uM)”; `CC(C)COc1cc(F)cc(-c2ccc(C(=O)NS(=O)(=O)c3cccc(N)n3)c(OCCCn3cccn3)n2)c1` [Compound 1692, N-[(6-amino-2-pyridyl)sulfonyl]-6-(3-fluoro-5-isobutoxy-phenyl)-2-(3-pyrazol-1-ylpropoxy)pyridine-3-carboxamide]: “++ (“++” means between 3 uM and 10 uM)”.
Next, `CNc1cc(S(=O)(=O)NC(=O)c2cc(C(C)(C)C)nn2Cc2c(C)cccc2C)ccn1` [Compound 821, 5-tert-butyl-2-[(2,6-dimethylphenyl)methyl]-N-[[12-(methylamino)-4-pyridyl]sulfonyl]pyrazole-3-carboxamide]: “++ (“++” means between 3 uM and 10 uM)”.
Next, `CC1CN(c2ncccc2C(=O)NS(=O)(=O)c2cccc(Nc3ccc4ncsc4c3)n2)C(C)(C)C1` (stereo not drawn) [Compound 1775, N—[[6-(1,3-benzothiazol-6-ylamino)-2-pyridyl]sulfonyl]-2-(2,24-trimethylpyrrolidin-1-yl)pyridine-3-carboxamide]: “+++ (“+++” means <3 uM)”; `CCOc1cccc2c1CN(Cc1c(C)cc(C)cc1C)C2(C)C(=O)NS(=O)(=O)c1ccc(C(C)C)c(N)c1` (stereo not drawn) [Compound 1562, N-(3-amino-4-isopropyl-phenyl)sulfonyl-4-ethoxy-1-methyl-2-[(2,4,6-trimethylphenyl)methyl]isoindoline-1-carboxamide]: “+++ (“+++” means <3 uM)”.
